Data reported in doi:10.1101/2023.05.15.540887, “Comparative analysis of drug-like EP300/CREBBP acetyltransferase inhibitors” (bioRxiv, 2023).
Where two headings read alike, the source gives them in different places.

Experiments:
[1] = system: MCF10A PANK4 KO+PANK4 mutant (D623A) cells; experiment: Sulforhodamine B cell growth assay, MCF10A PANK4 KO+PANK4 mutant; format: cell-based; settings: Homo sapiens; MCF-10A KO+PANK4 mutant, 72 h
[2] = system: RPMI-8226; experiment: NCI-60 growth inhibition (sulforhodamine B); format: cell-based, human; settings: RPMI-8226 (Leukemia), negative log of Molar conc., LCONC -8
[3] = system: EKVX; experiment: NCI-60 growth inhibition (sulforhodamine B); format: cell-based, human; settings: EKVX (Non-Small Cell Lung Cancer), negative log of Molar conc., LCONC -8
[4] = system: HOP-62; experiment: NCI-60 growth inhibition (sulforhodamine B); format: cell-based, human
[5] = system: NCI-H322M; experiment: NCI-60 growth inhibition (sulforhodamine B); format: cell-based, human; settings: NCI-H322M (Non-Small Cell Lung Cancer), negative log of Molar conc., LCONC -8
[6] = system: KM12; experiment: NCI-60 growth inhibition (sulforhodamine B); format: cell-based, human; settings: KM12 (Colon Cancer), negative log of Molar conc., LCONC -8
[7] = system: SF-539; experiment: NCI-60 growth inhibition (sulforhodamine B); format: cell-based, human; settings: SF-539 (CNS Cancer), negative log of Molar conc., LCONC -8
[8] = system: SNB-75; experiment: NCI-60 growth inhibition (sulforhodamine B); format: cell-based, human; settings: SNB-75 (CNS Cancer), negative log of Molar conc., LCONC -8
[9] = system: U251; experiment: NCI-60 growth inhibition (sulforhodamine B); format: cell-based, human; settings: U251 (CNS Cancer), negative log of Molar conc., LCONC -8
[10] = system: LOXIMVI; experiment: NCI-60 growth inhibition (sulforhodamine B); format: cell-based, human; settings: LOX IMVI (Melanoma), negative log of Molar conc., LCONC -8
[11] = system: SK-MEL-5; experiment: NCI-60 growth inhibition (sulforhodamine B); format: cell-based, human; settings: SK-MEL-5 (Melanoma), negative log of Molar conc., LCONC -8
[12] = system: IGROV1; experiment: NCI-60 growth inhibition (sulforhodamine B); format: cell-based, human; settings: IGROV1 (Ovarian Cancer), negative log of Molar conc., LCONC -8
[13] = system: OVCAR-5; experiment: NCI-60 growth inhibition (sulforhodamine B); format: cell-based, human; settings: OVCAR-5 (Ovarian Cancer), negative log of Molar conc., LCONC -8
[14] = system: MCF7; experiment: NCI-60 growth inhibition (sulforhodamine B); format: cell-based; settings: Homo sapiens, MCF7, Breast Cancer, negative log of Molar value, LCONC -8, EXPID 2301NS84
[15] = system: MDA-MB-231/ATCC; experiment: NCI-60 growth inhibition (sulforhodamine B); format: cell-based; settings: Homo sapiens, Breast Cancer, negative log of Molar value, LCONC -8, EXPID 2301NS84, read-out: IC50 NLOGVALUE
[16] = Homo sapiens, read-out: GI50 NLOGVALUE
[17] = Homo sapiens, read-out: IC50 NLOGVALUE (converted)
[18] = Homo sapiens, read-out: LC50 NLOGVALUE
[19] = Homo sapiens, read-out: GI50 NLOGVALUE (converted)
[20] = Homo sapiens, read-out: IC50 NLOGVALUE

## C[C@H](CN[C@@H](C(=O)Nc1ccc(-c2cnn(C)c2)cn1)c1ccccc1)c1ccc(C#N)cc1 [CPI-1612]
[1]
  IC50: 102 nM
[2]; [16]
  GI50: < 10 nM
[2]; [17]
  IC50: 12.6 nM
[2]; [18]
  CC50: > 100000 nM
[2]
  TGI NLOGVALUE: 4.56
[3]
  TGI NLOGVALUE: 4
[3]; [19]
  GI50: 1510 nM
[3]; [20]
  IC50: > 100000 nM
[4]; HOP-62 (Non-Small Cell Lung Cancer), negative log of Molar conc., LCONC -8
  TGI NLOGVALUE: 4
[4]; Homo sapiens, HOP-62, read-out: GI50 AVGDATA (converted)
  GI50: 1950 nM
[4]; Homo sapiens, HOP-62 (Non-Small Cell Lung Cancer), negative log of Molar conc., LCONC -8, read-out: GI50 NLOGVALUE (converted)
  GI50: 1910 nM
[4]; Homo sapiens, HOP-62 (Non-Small Cell Lung Cancer), negative log of Molar conc., LCONC -8, read-out: IC50 NLOGVALUE
  IC50: > 100000 nM
[4]; Homo sapiens, HOP-62 (Non-Small Cell Lung Cancer), negative log of Molar conc., LCONC -8, read-out: LC50 NLOGVALUE
  CC50: > 100000 nM
[5]; [19]
  GI50: 288 nM
[5]; [20]
  IC50: > 100000 nM
[5]
  TGI NLOGVALUE: 4
[6]; [19]
  GI50: 204 nM
[6]; [17]
  IC50: 3240 nM
[6]; [18]
  CC50: > 100000 nM
[6]
  TGI NLOGVALUE: 4
[7]; [19]
  GI50: 2090 nM
[7]; [20]
  IC50: > 100000 nM
[7]; [18]
  CC50: > 100000 nM
[7]
  TGI NLOGVALUE: 4
[8]; [16]
  GI50: > 100000 nM
[8]; [20]
  IC50: > 100000 nM
[8]; [18]
  CC50: > 100000 nM
[8]
  TGI NLOGVALUE: 4
[9]; Homo sapiens, U-251, read-out: GI50 NLOGVALUE (converted)
  GI50: 2340 nM
[9]; Homo sapiens, U-251, read-out: IC50 NLOGVALUE (converted)
  IC50: 28800 nM
[9]; Homo sapiens, U-251, read-out: LC50 NLOGVALUE
  CC50: > 100000 nM
[9]
  TGI NLOGVALUE: 4
[10]; [19]
  GI50: 44.7 nM
[10]; [17]
  IC50: 129 nM
[10]; [18]
  CC50: > 100000 nM
[10]
  TGI NLOGVALUE: 4
[11]; [16]
  GI50: < 10 nM
[11]; [17]
  IC50: 26.3 nM
[11]; [18]
  CC50: > 100000 nM
[11]
  TGI NLOGVALUE: 4.48
[12]; Homo sapiens, IGROV-1, read-out: GI50 NLOGVALUE (converted)
  GI50: 75.9 nM
[12]; Homo sapiens, IGROV-1, read-out: IC50 NLOGVALUE (converted)
  IC50: 57500 nM
[12]; Homo sapiens, IGROV-1, read-out: LC50 NLOGVALUE
  CC50: > 100000 nM
[12]
  TGI NLOGVALUE: 4
[13]; [16]
  GI50: > 100000 nM
[13]; [20]
  IC50: > 100000 nM
[13]; [18]
  CC50: > 100000 nM
[13]
  TGI NLOGVALUE: 4
[14]; read-out: GI50 NLOGVALUE
  GI50: < 10 nM
[14]; read-out: IC50 NLOGVALUE
  IC50: < 10 nM
[15]
  IC50: > 100000 nM
